From paper PMC12113356, “Novel Anti-MRSA Peptide from Mangrove-Derived Virgibacillus chiguensis FN33 Supported by Genomics and Molecular Dynamics” (Marine Drugs, 2025)
Converted amounts (≈) assume the structure as drawn. Peptide text beside a SMILES is read from it.

Assays:
MRSA strain 2468 [1] = experiment: Time-kill assay; assay type: cell-based, Staphylococcus aureus; settings: for bacterial reduction rate: triplicate
Protocol: (§1) The time–kill assay of FN33 AMP was conducted by measuring bacterial viability (log CFU/mL) at different time points. […] In the untreated group, bacterial growth increased over time, with a growth rate of 0.292 log CFU/h for S. aureus TISTR 517 and 0.2884 log CFU/h for MRSA strain 2468. […] However, complete eradication of S. aureus TISTR 517 was not achieved at either concentration, even after 24 h of treatment. […] The bactericidal effect was confirmed by complete eradication within 20 h of treatment. […] The killing rate against MRSA strain 2468 was faster than that observed for S. aureus TISTR 517 at all concentrations.
(§2) Error bars represent the standard deviation of triplicate experiments.

S. aureus TISTR 517 = experiment: Time-kill assay; assay type: cell-based, Staphylococcus aureus; settings: for bacterial reduction rate: triplicate
Protocol: as §1, §2

MRSA strain 2468 [2] = experiment: Thermal stability (activity retention by agar well diffusion); assay type: physicochemical, Staphylococcus aureus; settings: for Antibacterial Activity Retention of FN33 AMP (%) Against MRSA Strain 2468: 32 µg/mL in water, agar well diffusion read-out, % of untreated sample, mean ± SD, n = 3
Protocol: (§3) The AMP solution was prepared in sterile purified water and adjusted to a final concentration of 32 µg/mL. To determine thermal stability, the AMP was exposed to temperatures of 30, 40, 60, 80, and 100 °C, as well as to autoclaving at 121 °C and 15 psi for 15 and 30 min. The susceptibility of the AMP to enzymatic degradation was examined by treating it with proteinase K, trypsin, and α-chymotrypsin (each at 1 mg/mL, Sigma-Aldrich, Warren, MI, USA), representing different proteolytic mechanisms. The AMP’s compatibility with surfactants was assessed by incubating it with 1% SDS, 1% CTAB, and 1% Triton X-100 (AppliChem GmbH, Darmstadt, Germany). Additionally, the effect of pH variations on AMP integrity was tested by adjusting the solution to pH 1, 4, 8, 10, and 14. The pH was neutralized to the original pH after incubation before conducting antibacterial activity tests. […] Stability data were expressed as residual activity percentages relative to the untreated sample (mean ± SD), and statistical significance was evaluated using two-way ANOVA and Tukey’s post hoc test, with a p-value < 0.05 considered significant.

proteinase K = target: T1, proteinase K (Parengyodontium album, UniProt P06873); experiment: Stability to protease digestion (activity retention); assay type: in vitro ADME; settings: 32 µg/mL, proteinase K 1 mg/mL, agar well diffusion read-out vs MRSA strain 2468, % of untreated sample, mean ± SD, n = 3
T1 construct: purchased Sigma-Aldrich
Protocol: as §3

α-chymotrypsin = target: T2, α-chymotrypsin (Bos taurus, UniProt P00766); experiment: as above; assay type: in vitro ADME; settings: 32 µg/mL, α-chymotrypsin 1 mg/mL, agar well diffusion read-out vs MRSA strain 2468, % of untreated sample, mean ± SD, n = 3
T2 construct: purchased Sigma-Aldrich
Protocol: as §3

MRSA strain 2468 [3] = experiment: Compatibility with surfactants (activity retention by agar well diffusion); assay type: physicochemical, Staphylococcus aureus; settings: 32 µg/mL, agar well diffusion read-out, % of untreated sample, mean ± SD, n = 3
Protocol: as §3

egg albumin = experiment: Albumin denaturation assay (in vitro anti-inflammatory); assay type: biochemical, hen; settings: PBS pH 7.2, 37 °C 15 min then 70 °C 5 min, OD 660 nm, mean ± SD, n = 3
Protocol: The reaction mixture consisted of 25 μL of egg albumin (derived from fresh hen eggs), 350 μL of PBS (pH 7.2, 0.1 M), and 250 μL of AMP or PBS (used as a reference). The mixtures were pre-incubated at 37 °C for 15 min, followed by denaturation at 70 °C for 5 min. After a 5 min cooling period on ice, the optical density (OD) at 660 nm was measured using a spectrophotometer. […] The percentage inhibition of albumin denaturation was calculated using the following equation:Inhibition of albumin denaturation (%) = [1 − (Absorbancesample/Absorbancecontrol)] × 100

[4] = DPPH radical-scavenging assay; settings: 0.1 mM DPPH, 25 °C, 30 min in darkness, absorbance 517 nm; mean ± SD, n = 3
Protocol: A 200 μL sample or ascorbic acid (Gammaco Ltd., Bangkok, Thailand) was added to 2 mL of 0.1 mM DPPH solution (Merck Ltd., Bangkok, Thailand) and incubated at 25 °C in darkness for 30 min. The DPPH color change from purple to pale yellow was observed, and the absorbance at 517 nm was measured using a UV–visible spectrophotometer.

T1 sequence (P06873 106-384): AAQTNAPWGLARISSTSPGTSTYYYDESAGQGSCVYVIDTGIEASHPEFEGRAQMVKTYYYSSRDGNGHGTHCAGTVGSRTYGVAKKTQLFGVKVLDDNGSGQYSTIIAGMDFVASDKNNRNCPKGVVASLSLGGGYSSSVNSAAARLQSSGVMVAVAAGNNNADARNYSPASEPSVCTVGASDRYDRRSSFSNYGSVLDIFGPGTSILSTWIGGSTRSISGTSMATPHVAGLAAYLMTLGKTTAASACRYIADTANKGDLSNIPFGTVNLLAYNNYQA

CC(C)C[C@H](NC(=O)[C@H](CC(=O)O)NC(=O)[C@H](CS)NC(=O)[C@H](Cc1c[nH]cn1)NC(=O)[C@H](CS)NC(=O)[C@@H]1CCCN1C(=O)[C@@H](NC(=O)[C@H](CC(C)C)NC(=O)[C@H](CS)NC(=O)CNC(=O)[C@H](Cc1c[nH]c2ccccc12)NC(=O)[C@@H](NC(=O)[C@H](CC(=O)O)NC(=O)[C@@H](NC(=O)CNC(=O)[C@H](CS)NC(=O)CNC(=O)CNC(=O)[C@@H](N)CCC(=O)O)C(C)C)[C@@H](C)O)[C@@H](C)O)C(=O)N[C@@H](Cc1ccccc1)C(=O)N[C@@H](CS)C(=O)N[C@H](C(=O)N[C@H](C(=O)O)[C@@H](C)O)[C@@H](C)O [FN33 AMP] (H-EGGCGVDTWGCLTPCHCDLFCTT-OH)
bacterial reduction rate (MRSA strain 2468 [1]; 1× MIC): 0.1519 log CFU/h | time to eradication (no detectable bacterial counts) (MRSA strain 2468 [1]; 2× MIC): ≤ 20 h | bacterial reduction rate (MRSA strain 2468 [1]; 2× MIC): 0.2498 log CFU/h | time to eradication (no detectable bacterial counts) (MRSA strain 2468 [1]; 4× MIC): ≤ 12 h | bacterial reduction rate (MRSA strain 2468 [1]; 4× MIC): 0.4508 log CFU/h | bacterial reduction rate (S. aureus TISTR 517; 1× MIC, up to 24 h): 0.0496 log CFU/h | bacterial reduction rate (S. aureus TISTR 517; 2× MIC, up to 24 h): 0.1322 log CFU/h | time to complete eradication (S. aureus TISTR 517; 4× MIC): ≤ 20 h | bacterial reduction rate (S. aureus TISTR 517; 4× MIC): 0.2704 log CFU/h | Antibacterial Activity Retention of FN33 AMP (%) Against MRSA Strain 2468 (MRSA strain 2468 [2]; 30 °C, 1 h): 100.00 ± 0.66% | Antibacterial Activity Retention of FN33 AMP (%) Against MRSA Strain 2468 (MRSA strain 2468 [2]; 30 °C, 6 h): 100.00 ± 0.17% | Antibacterial Activity Retention of FN33 AMP (%) Against MRSA Strain 2468 (MRSA strain 2468 [2]; 30 °C, 12 h): 99.79 ± 0.47% | Antibacterial Activity Retention of FN33 AMP (%) Against MRSA Strain 2468 (MRSA strain 2468 [2]; 40 °C, 1 h): 100.08 ± 0.48% | Antibacterial Activity Retention of FN33 AMP (%) Against MRSA Strain 2468 (MRSA strain 2468 [2]; 40 °C, 6 h): 100.02 ± 0.35% | Antibacterial Activity Retention of FN33 AMP (%) Against MRSA Strain 2468 (MRSA strain 2468 [2]; 40 °C, 12 h): 100.23 ± 0.28% | Antibacterial Activity Retention of FN33 AMP (%) Against MRSA Strain 2468 (MRSA strain 2468 [2]; 60 °C, 1 h): 98.58 ± 1.74% | Antibacterial Activity Retention of FN33 AMP (%) Against MRSA Strain 2468 (MRSA strain 2468 [2]; 60 °C, 6 h): 93.53 ± 1.27 *^,† % | Antibacterial Activity Retention of FN33 AMP (%) Against MRSA Strain 2468 (MRSA strain 2468 [2]; 60 °C, 12 h): 86.98 ± 0.79 *^,† % | Antibacterial Activity Retention of FN33 AMP (%) Against MRSA Strain 2468 (MRSA strain 2468 [2]; 80 °C, 1 h): 95.17 ± 0.43 % | Antibacterial Activity Retention of FN33 AMP (%) Against MRSA Strain 2468 (MRSA strain 2468 [2]; 80 °C, 6 h): 90.91 ± 0.26 *^,† % | Antibacterial Activity Retention of FN33 AMP (%) Against MRSA Strain 2468 (MRSA strain 2468 [2]; 80 °C, 12 h): 82.46 ± 0.55 *^,† % | Antibacterial Activity Retention of FN33 AMP (%) Against MRSA Strain 2468 (MRSA strain 2468 [2]; 100 °C, 1 h): 90.83 ± 0.67 % | Antibacterial Activity Retention of FN33 AMP (%) Against MRSA Strain 2468 (MRSA strain 2468 [2]; 100 °C, 6 h): 83.38 ± 0.83 *^,† % | Antibacterial Activity Retention of FN33 AMP (%) Against MRSA Strain 2468 (MRSA strain 2468 [2]; 100 °C, 12 h): 79.97 ± 0.06 *^,† % | Antibacterial Activity Retention of FN33 AMP (%) Against MRSA Strain 2468 (MRSA strain 2468 [2]; autoclave 121 °C and 15 psi, 15 min): 72.82 ± 0.53 % | Antibacterial Activity Retention of FN33 AMP (%) Against MRSA Strain 2468 (MRSA strain 2468 [2]; autoclave 121 °C and 15 psi, 30 min): 65.87 ± 0.82 *^,† % | activity lost due to elevated temperatures (MRSA strain 2468 [2]; 60 °C, 80 °C and 100 °C, over 12 h): up to 20% | Antibacterial Activity Retention of FN33 AMP (%) Against MRSA Strain 2468 (proteinase K; 1 h): 0.00 ± 0.00 % | Antibacterial Activity Retention of FN33 AMP (%) Against MRSA Strain 2468 (proteinase K; 6 h): 0.00 ± 0.00 % | Antibacterial Activity Retention of FN33 AMP (%) Against MRSA Strain 2468 (proteinase K; 12 h): 0.00 ± 0.00 % | Antibacterial Activity Retention of FN33 AMP (%) Against MRSA Strain 2468 (α-chymotrypsin; 1 h): 0.00 ± 0.00 % | Antibacterial Activity Retention of FN33 AMP (%) Against MRSA Strain 2468 (α-chymotrypsin; 6 h): 0.00 ± 0.00 % | Antibacterial Activity Retention of FN33 AMP (%) Against MRSA Strain 2468 (α-chymotrypsin; 12 h): 0.00 ± 0.00 % | Antibacterial Activity Retention of FN33 AMP (%) Against MRSA Strain 2468 (MRSA strain 2468 [3]; with CTAB 1% w/v, 1 h): 93.19 ± 0.52 % | Antibacterial Activity Retention of FN33 AMP (%) Against MRSA Strain 2468 (MRSA strain 2468 [3]; with CTAB 1% w/v, 6 h): 93.17 ± 0.48 % | Antibacterial Activity Retention of FN33 AMP (%) Against MRSA Strain 2468 (MRSA strain 2468 [3]; with CTAB 1% w/v, 12 h): 92.51 ± 0.69 *^,† % | Antibacterial Activity Retention of FN33 AMP (%) Against MRSA Strain 2468 (MRSA strain 2468 [3]; with SDS 1% w/v, 1 h): 117.08 ± 0.78 % | Antibacterial Activity Retention of FN33 AMP (%) Against MRSA Strain 2468 (MRSA strain 2468 [3]; with SDS 1% w/v, 6 h): 117.39 ± 0.96 % | Antibacterial Activity Retention of FN33 AMP (%) Against MRSA Strain 2468 (MRSA strain 2468 [3]; with SDS 1% w/v, 12 h): 115.95 ± 0.57 % | Antibacterial Activity Retention of FN33 AMP (%) Against MRSA Strain 2468 (MRSA strain 2468 [3]; with Triton X-100 1% w/v, 1 h): 81.23 ± 1.04 % | Antibacterial Activity Retention of FN33 AMP (%) Against MRSA Strain 2468 (MRSA strain 2468 [3]; with Triton X-100 1% w/v, 6 h): 81.69 ± 0.38 % | Antibacterial Activity Retention of FN33 AMP (%) Against MRSA Strain 2468 (MRSA strain 2468 [3]; with Triton X-100 1% w/v, 12 h): 81.30 ± 0.72 % | % Inhibition of Albumin Denaturation (egg albumin; 50 µg/mL): 4.85 ± 0.93 *^,† % | % Inhibition of Albumin Denaturation (egg albumin; 100 µg/mL): 17.75 ± 0.97 *^,† % | % Inhibition of Albumin Denaturation (egg albumin; 250 µg/mL): 34.39 ± 1.82 % | % Inhibition of Albumin Denaturation (egg albumin; 500 µg/mL): 57.16 ± 1.06 % | IC50 (DPPH radical scavenging) [4]: 11.66 ± 2.87 µg/mL (≈ 4.82 µM)
